A short description of data set [1]: refractive index (Na D-line) (dimensionless). Conditions: 298.15 K; 859 kPa; Liquid; Standard Abbe refractometry.
The conditions of data set [2]: 298.15 K; 85.9 kPa; Liquid; Vibrating tube method.

Data on one compound can be found in the NIST ThermoML archive (doi:10.1016/j.fluid.2013.05.022).

± gives the expanded uncertainty stated by the source.

For `CN(C)C=O` [dimethylformamide], the refractive index – broadly, a measure of how strongly the sample bends light – in data set [1] was 1.4281 ± 0.0004. For the same compound, the mass density – broadly, the mass of a sample divided by its volume – in data set [2] was 944.53 ± 1 kg/m3.
